Experiments:
[1] = target: T1, human serum albumin (HSA) (Homo sapiens, UniProt P02768); test: fluorescence quenching/enhancement and anisotropy titrations; also equilibrium dialysis, HSA affinity chromatography, CD; assay type: binding; conditions: read-out: logK (Hyperquad, Figure 3) (converted)
T1 construct: gene ALB

[2] = target: T1, human serum albumin (HSA); test: equilibrium dialysis; also fluorescence titrations and anisotropy, HSA affinity chromatography, CD; assay type: binding; conditions: read-out: % bound

T1 sequence (P02768 25-609): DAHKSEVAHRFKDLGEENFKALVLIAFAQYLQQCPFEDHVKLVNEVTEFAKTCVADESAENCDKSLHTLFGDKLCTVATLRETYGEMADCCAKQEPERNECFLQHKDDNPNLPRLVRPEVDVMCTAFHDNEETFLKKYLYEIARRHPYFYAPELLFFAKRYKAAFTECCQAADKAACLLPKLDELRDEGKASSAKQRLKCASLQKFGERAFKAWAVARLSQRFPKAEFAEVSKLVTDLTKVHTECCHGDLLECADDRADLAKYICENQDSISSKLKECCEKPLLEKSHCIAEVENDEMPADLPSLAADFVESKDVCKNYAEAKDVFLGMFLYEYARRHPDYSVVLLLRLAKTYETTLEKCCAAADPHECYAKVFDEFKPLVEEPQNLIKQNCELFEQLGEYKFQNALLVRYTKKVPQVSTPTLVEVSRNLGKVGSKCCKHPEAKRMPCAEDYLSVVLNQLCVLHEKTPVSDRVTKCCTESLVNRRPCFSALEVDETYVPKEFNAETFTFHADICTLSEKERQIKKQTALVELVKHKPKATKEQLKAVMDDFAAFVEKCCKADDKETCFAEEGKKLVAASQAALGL

`C[C@@H]1Cc2c(Cl)cc(C(=O)N[C@H](Cc3ccccc3)C(=O)O)c(O)c2C(=O)O1` [2′R-OTA, 2′R-Ochratoxin A] was tested, and the Kd [1] was 589 nM.
`C[C@@H]1Cc2c(Cl)cc(C(=O)N[C@@H](Cc3ccccc3)C(=O)O)c(O)c2C(=O)O1` [OTA, Ochratoxin A] showed a fraction unbound [2] of under 0.004.

— paper PMC6070976, “Interaction of Ochratoxin A and Its Thermal Degradation Product 2′R-Ochratoxin A with Human Serum Albumin” (Toxins, 2018)
